“Also recorded” adds a separate entry of the source.
Columns and labels:
[1] = tested on: mouse oligodendrocyte progenitor cells (OPCs); test: Mouse oligodendrocyte progenitor cell differentiation, 5-day treatment, Example 5; format: cell-based; conditions: 96-well plates, plp-EGFP mouse OPCs
Description: OPCs were derived from plp-EGFP expressing mice.
Therapeutic agents were tested in 96-well plates (6 wells per concentration). […] All media contained 0.1% DMSO. At the end of the 5-day treatment, cells were imaged on Cellomics in two channels and algorithms were used to count nuclei and EGFP+ oligodendrocytes.

[2] = tested on: embryonic stem cells (ES); test: Myogenic conversion of embryonic stem cells (embryoid bodies); format: cell-based; conditions: embryoid bodies without DMSO, approximately 1 nM to about 1 μM; present-tense example
Text: To test the potency of RXRs on myogenic conversion of embryonic stem cells (ES), embryoid bodies are formed without DMSO. […] Myoblasts are examined through microscopy and the number of myocytes counted.

[3] = tested on: oligodendrocyte precursor cells (OPCs); test: Oligodendrocyte precursor cell differentiation (EGFP expression), Example 4; format: cell-based, mouse
Description: OPCs were generated from a neurosphere culture of E14.5 PLP-EGFP (on C57BL/6J background) mouse brains. […] The EGFP expressing cells were quantified with Cellomics Neuronal Profiling Algorithm.
The EGFP expressing cells in controls and all compounds were quantified with Cellomics Neuronal Profiling Algorithm.

[4] = Terminal T4 levels, mortality and body weight in the demyelination study, Example 7; conditions: 6 weeks treatment during CR
Description: (§1) Animals (8 week-old male C57BL/6J mice) were subjected to cuprizone diet plus rapamycin injections (CR) for 6 weeks to induce demyelination. […] All animals were sacrificed after 6 weeks of CR to evaluate axonal integrity and microglial/macrophage activity in the white matter (corpus callosum, CC).
A total of 50 animals were included in the study, where 43 animals received CR demyelination for 6 weeks. During demyelination, a subset (n=7) of animals were kept on normal diet to serve as naïve age-matched controls.

[5] = tested on: murine skeletal muscle myoblasts and primary myoblasts; test: Myoblast differentiation; format: cell-based; conditions: about 10 nM to about 1 μM; present-tense example
Description: In order to determine and compare the efficacy of IRX4204 and IRX4204+thyroxine in myoblast differentiation, murine skeletal muscle myoblasts and primary myoblasts are cultured. Myogenic differentiation is initiated when cells are approximately 60-80% confluent, with the cells being differentiated into cell types, such as myotubes.

[6] = biological target: T1, RXRα (Homo sapiens, UniProt P19793); conditions: RXR receptors vs RAR receptors
T1 sequence (P19793 1-462): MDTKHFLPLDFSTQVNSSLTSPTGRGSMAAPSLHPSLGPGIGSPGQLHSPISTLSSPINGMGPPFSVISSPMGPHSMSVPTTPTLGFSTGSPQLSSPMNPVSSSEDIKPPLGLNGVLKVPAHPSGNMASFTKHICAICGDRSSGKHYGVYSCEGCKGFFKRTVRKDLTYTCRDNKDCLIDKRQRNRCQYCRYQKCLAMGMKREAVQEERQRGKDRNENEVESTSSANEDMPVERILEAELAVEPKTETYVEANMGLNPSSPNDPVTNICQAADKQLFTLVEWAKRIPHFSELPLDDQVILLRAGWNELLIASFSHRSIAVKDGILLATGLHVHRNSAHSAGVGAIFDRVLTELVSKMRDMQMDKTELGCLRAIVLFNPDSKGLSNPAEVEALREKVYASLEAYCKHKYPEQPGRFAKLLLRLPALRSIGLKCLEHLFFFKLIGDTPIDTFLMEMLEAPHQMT
Description: To determine whether a RXR agonist can mediate its effects via RXRα receptor homodimers, RXRβ receptor homodimers, RXRγ receptor homodimers, or any combination thereof, or the corresponding RAR/RXR heterodimers, receptor-mediated transactivation assays were performed. For transactivation assays assessing RXR homodimer signaling, CV-1 cells were transfected with 1) an expression construct including a full length RXRα, RXRβ, or RXRγ; and 2) a rCRBPII/RXRE-tk-Luc reporter construct that included RXR homodimer-specific RXRE/DR1 responsive element linked to a luciferase gene. For transactivation assays assessing RAR/RXR heterodimer signaling, CV-1 cells were transfected with 1) an expression construct comprising a fusion protein including an estrogen receptor (ER) DNA binding domain linked to the ligand binding domain of RARα, RARβ, or RARγ and 2) a ERE-tk-Luc reporter construct that included an estrogen receptor responsive element linked to a luciferase gene. […] Data are mean values±SE from five independent experiments.

[7] = tested on: spontaneously hypertensive rats (SHRs); test: Cardiac hypertrophy in spontaneously hypertensive rats; format: in vivo, rat; conditions: present-tense example; for inhibition of the increase in cardiac mass and wall thickness: SHRs at 12 weeks of age, 10 mg to 100 mg/kg
Description: Four weeks old SHRs and control rats are randomized and put into groups of 5-10 rats/group. […] Transthoratic echocardiographs are performed to determine cardiac weights and measurements.
The animals are sacrificed at 16 weeks of age to determine cardiac hypertrophy. Hypertrophy is determined by the animal's left ventricle weight to body weight ratio. The myocyte cross-sectional area is also determined. Approximately 10 mg to about 30 mg of the animal's left ventricle is homogenized and subject to sodium dodecyl sulfate polyacrylamide gel electrophoresis (SDS-PAGE) and immunoblot analysis.

[8] = tested on: Pluripotent P19 cells; test: Myogenic differentiation of pluripotent P19 cells; format: cell-based; conditions: approximately 1 nM to about 1 μM, 1% DMSO; present-tense example
Description: Cells fixed to cover slips are then incubated with primary antibodies for skeletal muscle markers and then labeled with secondary antibodies. Microscopy analysis is performed and the number of skeletal myocytes quantified.

[9] = tested on: mouse model of non-immune mediated demyelination; test: 6-week cuprizone plus rapamycin demyelination model, corpus callosum histology, Example 7; format: in vivo, C57BL/6J mice; conditions: IRX4204 10 mg/kg PO, T4 20 ng/g SQ, daily for 6 weeks during CR
Description: as §1
The floating brain sections were immunostained with SMI-32 to visualize and quantify axonal ovoids in the CC.
The floating brain sections were immunostained with lba-1 to visualize and quantify microglia/macrophages in CC.

Row | Compound | production of EGFP+ oligodendrocytes [1] | potency at increasing myogenic differentiation (number of myocytes) [2] | total cell number and pyknotic cells compared to controls ([3]; OPC culture) | OPC differentiation into oligodendrocytes (EGFP positive cells) compared to negative control (DMSO) ([3]; OPCs from E14.5 PLP-EGFP mouse brains) | terminal body weights vs vehicle group [4] | myoblast differentiation (numbers of microfibers, differentiated cells) [5] | potency in activating RXR receptors rather than RAR receptors [6] | inhibition of the increase in cardiac mass and wall thickness [7] | RXRα expression in cardiac muscle tissue (immunoblot) ([7]; SHRs at 16 weeks of age) | inhibition of cardiomyocyte cross-sectional area increases ([7]; SHRs at 16 weeks of age) | number of myogenically differentiated cells (skeletal myocytes) [8] | Iba1 staining (microglia/macrophages) in CC compared to vehicle [9] | number of SMI32 stained axonal ovoids in CC compared to Vehicle [9] | ratio of left ventricle weight to body weight ([7]; SHRs at 16 weeks of age)
1 | N[C@@H](Cc1cc(I)c(Oc2ccc(O)c(I)c2)c(I)c1)C(=O)O [Compound T3, triiodothyronine, reference compound] | clear dose-responses in oligodendrocyte production | – | – | – | – | – | – | – | – | – | – | – | – | –
2 | CC(/C=C/[C@@H]1C[C@]1(C)c1ccc2c(c1)C(C)(C)CCC2(C)C)=C\C(=O)O [IRX4204, 3,7-dimethyl-6(S),7(S)-methano,7-[1,1,4,4-tetramethyl-1,2,3,4-tetrahydronaphth-7-yl]2(E),4(E) heptadienoic acid] | clear dose-responses in oligodendrocyte production | more potent at increasing differentiation than treatment with retinoic acid, bexarotene, or vehicle alone | did not show any differences | significant increase in OPC differentiation into oligodendrocytes; also recorded: dose dependent increase in the number of the EGFP positive cells | no significant difference | increased numbers of microfibers as compared to cells treated with thyroxine or vehicle alone | > 1,000 fold | greater inhibition of the increase in cardiac mass and wall thickness as compared to bexarotene-treated animals | up-regulated more | greater inhibition of cardiomyocyte cross-sectional area increases than treatment with bexarotene | higher number of myogenically differentiated cells as compared to cells treated with retinoic acid, bexarotene, or vehicle alone | no difference | trend towards decreased number of axonal ovoids but was not statistically different from the Vehicle | –
3 | C=C(c1ccc(C(=O)O)cc1)c1cc2c(cc1C)C(C)(C)CCC2(C)C [bexarotene, 4-[1-(3,5,5,8,8-pentamethyl-6,7-dihydronaphthalen-2-yl)ethenyl]benzoic acid, reference compound] | – | – | – | – | – | – | – | inhibition of the increase in cardiac mass and wall thickness as compared to vehicle-only treated SHRs | – | – | – | – | – | significantly lower ratio of left ventricle weight to body weight as compared to vehicle-only treated SHRs
